Columns and labels:
[1] = test system: human cardiac myosin S2 peptide; test: Competitive ELISA (cELISA) against polyclonal anti-S2 antibody; type: binding; conditions: low-high-low OD trend
Method: Phosphate buffer saline (PBS) contained 0.14 M sodium chloride, 2.7 mM potassium chloride, 1.5 mM potassium phosphate monobasic, and 8.1 mM sodium phosphate dibasic with pH 7.4. Detergent buffer was made with 0.05% triton X-100 in PBS, blocking buffer was made with 3% powdered milk in detergent buffer. Assay buffer contained 100 mM potassium phosphate dibasic, 100 mM potassium phosphate monobasic, 1 M potassium chloride and 10 mM magnesium chloride with pH 7.0. Stocks of primary antibody (polyclonal antibody anti-S2), rabbit skeletal myosin, human cardiac myosin S2 peptide, stabilizer and destabilizer peptide. Secondary antibody conjugated with alkaline phosphatase was anti-guinea pig immunoglobulin G (IgG)-alkaline phosphatase (Sigma-Aldrich, catalog number A5062) produced in goat and isolated by affinity chromatography. Substrate was 5-Bromo-4-chloro-3-indolyl phosphate (BCIP) tablets dissolved in 10 ml of distilled water per tablet and 96 well microtiter plate.
Competitive Enzyme Linked Immunosorbent Assay (cELISA) is a classical immunochemical test to validate the binding efficiency and specificity in lower molar concentrations (Yorde et al., 1976; Voller et al., 1978; Walker, J. M. 1996). In this assay the polyclonal antibody anti-S2 raised against single alpha helix of myosin S2 would be used to compete with stabilizer or destabilizer peptide to bind myosin S2 in rabbit skeletal myosin molecule as well as small human cardiac myosin S2 peptide. This cELISA, thus have two molecules polyclonal anti-S2 and stabilizer peptide which have two binding sites one on rabbit skeletal myosin and the other one being on small human cardiac myosin S2. Since both polyclonal anti-S2 and stabilizer peptide were designed against human β-cardiac myosin S2 they both would have a stronger affinity towards the smaller human β-cardiac myosin S2 peptide against the myosin S2 on rabbit skeletal myosin.
To test the binding specificity and efficiency of stabilizer or destabilizer peptide the following setup was used. Start of the setup would be to coat the wells with rabbit skeletal myosin molecule and add appropriate amount human cardiac myosin S2 peptide that would bind the primary polyclonal anti-S2 antibody and when washed there won't be enough primary polyclonal anti-S2 antibody to bind myosin S2 of rabbit skeletal myosin adsorbed on the wells. When alkaline phosphatase conjugated secondary antibody is added on to the wells, it won't have enough or none primary polyclonal anti-S2 antibody to bind. After addition of color developing BCIP substrate to the wells it would lead to low or no color development leading to lower optical density (OD). […]

[2] = biological target: T1, cardiac muscle myosin S2 peptide wild-type (MYH7) (Homo sapiens, UniProt P12883); test: FRET of cardiac muscle myosin S2 peptide dimer with anti-S2 peptides; type: binding; conditions: Cardiac peptide with Stabilizer
T1 construct: The 19 residue peptide was chemically synthesized; purchased BioSynthesis; Inc; host or cells: chemical synthesis
Source text: A small region of myosin subfragment 2 (S2) region of human β-cardiac myosin (MYH7) was selected to be synthesized by BioSynthesis; Inc. The region was selected based on mutations found within this region causing Familial hypertrophic cardiomyopathy (FHC) (Richard et al., 2003). The mutations are located within proximal region of myosin S2 specifically region of 921-939 (FIG. 7). Myosin S2 is an intrinsically unstable coiled coil and the sequence of this region was acquired from Protein Data Bank (PDB). The 19 residue peptide was chemically synthesized. Generated amino acid sequence used is as follow:
Chelate-lanthanide complex was utilized as the donor probe, which is composed of a lanthanide, an antenna, and a chelate. Organic chromophore antenna ([…]) will absorb a photon of light, and it will transfer energy to lanthanide ion (terbium III). This probe excites at 248 nm and emits at 547 nm.
Fluorescein was used as the acceptor probe. […]
In this experiment, luminescence spectrometer, AMNICO-BOWMAN SERIES 2 SPECTROMETER™, was used to detect resonance energy transfer. […] Emission signal generated from decay of molecules was detected by a photomultiplier tube, which contains proper color filters to detect the emitted photons.
FRET measured the dissociation constant (binding affinity) between the myosin S2 dimers and the anti-S2 peptides. […]

TD (donor lifetime without acceptor) [2]	SMILES	cross specificity to human cardiac myosin S2 and rabbit skeletal myosin S2 [1]
–	CSCC[C@H](NC(=O)[C@H](CCC(=O)O)NC(=O)[C@H](CCCNC(=N)N)NC(=O)[C@H](CCC(=O)O)NC(=O)[C@H](CC(=O)O)NC(=O)[C@H](CCC(=O)O)NC(=O)[C@H](CC(C)C)NC(=O)[C@H](CCCNC(=N)N)NC(=O)[C@H](CCC(=O)O)NC(=O)[C@H](CC(N)=O)NC(=O)[C@H](CCSC)NC(=O)[C@@H](N)CCC(=O)O)C(=O)N[C@@H](CCCCN)C(=O)N[C@@H](C)C(=O)N[C@@H](CCC(=O)O)C(=O)N[C@@H](CC(C)C)C(=O)N[C@H](C(=O)N[C@@H](C)C(=O)N[C@@H](CCCCN)C(=O)O)[C@@H](C)O [Destabilizer]	cross specific
1.73E−03	C[C@H](NC(=O)[C@H](CCCCN)NC(=O)[C@H](Cc1ccccc1)NC(=O)[C@H](CCCCN)NC(=O)[C@H](CCCCN)NC(=O)[C@H](CCCCN)NC(=O)[C@H](CCCCN)NC(=O)[C@H](CCCCN)NC(=O)[C@H](CCCCN)NC(=O)[C@H](CCCCN)NC(=O)[C@@H](N)CCCCN)C(=O)N[C@@H](CCCCN)C(=O)N[C@@H](CCCCN)C(=O)N[C@@H](CCCCN)C(=O)N[C@@H](CCCCN)C(=O)N[C@@H](CCCCN)C(=O)N[C@@H](CCCCN)C(=O)O [Stabilizer]	–

Reference: US12617818B2, “Compositions and methods for modulating myosin subfragment-2 coiled coil stability and methods for using them” (UNIVERSITY OF NORTH TEXAS, priority 2020, dated 2026)
